Entries after “also recorded” stand apart in the source; their conditions may differ.
Experiments:
3T3-L1 adipocytes = test: Adipocyte-based measurement of 2-NBDG uptake; assay type: cell-based
Excerpt: DM is a metabolic ailment that is categorized by glucose intolerance and deviations of lipid and protein metabolism processes. Previously, 2-NBDG was used as a potential agent to evaluate the action of compounds as insulin mimickers. In our experiment, we examined the activity of the pimarane diterpenes 1–7 on 2-NBDG uptake in the 3T3-L1 adipocytes model. […] Among them, compounds 1, 3, 5, 6, and 7 theoretically stimulated glucose uptake by 1.45–1.51-, 1.56–1.68-, 1.55–1.66-, 1.72–1.83-, and 1.67–1.75-fold of inductions, respectively (Figure 2).
Figure 2 The action of pimarane diterpenes (1–7) on 2-NBDG uptake. Compounds concentrations were 5 and 10 µM; Insulin (100 nM); Control (DMSO). The glucose uptake effect was expressed as the mean ± standard deviation (SD) of three replicates. Statistical significance was accessed by Duncan’s multiple range tests (* p < 0.01; ** p < 0.05). […]
Cell Culture and Induction of 3T3-L1 Adipocytes
3T3-L1 cells were purchased from American Type Culture Collection (ATCC, Manassas, VA, USA) and grown in DMEM with 10% FCS. To induce differentiation, 3T3-L1 pre-adipocytes were cultured until confluence was reached (0 day), and the culture medium was replaced with a fresh induction medium containing 5 µg/mL insulin, 0.5 mM 3-isobutyl-1-methylxanthine (IBMX), and 1 µM dexamethasone (DEX) […]
in DMEM with 10% FBS for 2 days. […]
Adipocyte-Based Measurement of 2-NBDG Uptake
3T3-L1 adipocytes grown in black 96-well plates were incubated with each sample for 24 h at 37 °C in a 5% CO2 atmosphere. Subsequently, 250 µM 2-NBDG (dissolved in PBS with 1% BSA) was added to the cells and incubated for a further 30 min. After incubation, cells were washed two times with PBS to remove excess fluorescence in the wells. Then, fluorescence retained by the cells was measured using a PerkinElmer […]

[1] = target: T1, Protein tyrosine phosphatase 1B (human recombinant) (Homo sapiens, UniProt P18031); test: PTP1B inhibition assay (p-NPP substrate); assay type: biochemical; settings: read-out: IC50 PTP1B inhibitory activity
T1 construct: purchased Biomol International LP, Plymouth Meeting, PA, USA
T1 sequence (P18031 1-435): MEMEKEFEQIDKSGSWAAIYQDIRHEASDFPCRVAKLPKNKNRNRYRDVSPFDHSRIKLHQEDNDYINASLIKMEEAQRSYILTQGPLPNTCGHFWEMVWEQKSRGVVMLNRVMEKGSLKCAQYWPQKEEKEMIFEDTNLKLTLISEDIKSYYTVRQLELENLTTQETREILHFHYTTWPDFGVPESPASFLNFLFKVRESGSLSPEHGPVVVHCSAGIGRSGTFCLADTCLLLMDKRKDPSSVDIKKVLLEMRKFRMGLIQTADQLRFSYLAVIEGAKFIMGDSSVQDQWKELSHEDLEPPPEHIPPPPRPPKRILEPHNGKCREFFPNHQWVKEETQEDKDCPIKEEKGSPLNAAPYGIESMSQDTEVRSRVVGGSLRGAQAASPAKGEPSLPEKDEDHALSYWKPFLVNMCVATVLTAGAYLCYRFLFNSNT
Excerpt: PTP1B dephosphorylates IR and IRS in the insulin signaling pathway as a negative regulator. In the leptin signaling pathway, PTP1B presented the same manner of tyrosine Janus kinase 2. Thus, inhibition of PTP1B activity might improve the IR and IRS, leading to the enhancement of glucose uptake in adipocyte cells. […]
(§1) Protein tyrosine phosphatase 1B (human recombinant) was purchased from Biomol International LP, Plymouth Meeting, PA, USA, and the inhibitory activities of the tested samples were evaluated using the method as described in [31]. Briefly, 0.05−0.1 µg of PTP1B (BIOMOL International L.P., Plymouth Meeting, PA, USA) and 4 mM p-NPP in a buffer containing 1 mMdithiothreitol, 0.1 M NaCl, 1 mM EDTA, and 50 mM citrate (pH 6.0), with or without test compounds, were added as 100 µL of a final volume to each of the 96 wells. After the reaction mixture was incubated at 37 °C for 30 min, 10 M NaOH was added to quench the reaction. PTP1B enzyme activity was determined by the amount of produced p-nitrophenol at 405 nm. […]
contain the PTP1B enzyme. […]
(§2) Data are represented as means ± SD of at least three independent experiments performed in triplicated assays and determined by regression analysis. For statistical analysis of the data for single comparison, the significance between means was determined by the Student’s t test. Sigma Plot program version 11.0 was used for analysis of the kinetic data.

[2] = target: T1, Protein tyrosine phosphatase 1B (human recombinant); test: Determination of the inhibition mode (Lineweaver–Burk and Dixon plots); assay type: biochemical; settings: p-NPP substrate; for Ki: Dixon plot; for Inhibition Type: Lineweaver–Burk and Dixon plots
Excerpt: The Sigma plot program was used to analyze both the double reciprocal Lineweaver–Burk plot and the Dixon plot by plotting 1/v as a function of the inhibitor (I). […] Table 1 lists the Ki values for these active compounds.
Victor3 V 1420 Multilabel Plate Counter at an excitation and emission wavelength of 485 nm and 535 nm, […]
as §1
contain the PTP1B enzyme.
Determination of the Inhibition Mode of Active Compounds
The Lineweaver–Burk plot and Dixon plot experiments were carried out in the presence and absence of the inhibitors with various concentrations of p-NPP as the substrate. The inhibition modes of the tested compounds were assessed on the basis of their inhibitory effects on the Km ([…]) and Vmax (maximum reaction velocity) of the enzyme, which were determined by the Lineweaver–Burk plot experiment. The Lineweaver–Burk plot is the double reciprocal plot of the enzyme reaction velocity ( V) versus the substrate ( p-NPP) concentration (1/ V versus 1/( p-NPP)).
as §2

PTP1B = test system: PTP1B; design: method as in PMID 23604820; settings: very low IC50 values; cited from earlier work

Compound	2-NBDG uptake, fold of induction (3T3-L1 adipocytes; range over 5 and 10 µM)	IC50 [1] [µM]	Ki [2] [µM]	Inhibition Type [2]	PTP1B inhibition (in words) (PTP1B)	further results
C=C[C@@]1(C)C[C@@H](O)[C@H]2[C@](O)(C1=O)[C@H](O)C[C@H]1C(C)(C)[C@H](OC(C)=O)[C@H](OC(C)=O)[C@H](OC(=O)c3ccccc3)[C@@]12C [Compound 5, orthosiphol G]	1.55–1.66 fold	3.82 ± 0.2	23.9 ± 1.2	non-competitive inhibition		2-NBDG uptake, fold of induction (3T3-L1 adipocytes; 5 μM): 1.55 ± 0.02 fold
C=CC1(C)CC(OC(=O)c2ccccc2)C2C(O)(C1=O)C(O)CC1C(C)(C)C(OC(C)=O)C(OC(C)=O)C(OC(=O)c3ccccc3)C12COC(C)=O (stereo not drawn) [Compound 2, siphonol D]	1.24–1.33 fold	24.7 ± 1.12				
insulin						2-NBDG uptake, fold of induction (3T3-L1 adipocytes; positive control at 100 nM): 1.55 ± 0.07 fold
C=C[C@]1(C)C=C2C(=O)C[C@H]3[C@@](C)(CCC[C@@]3(C)C(=O)O)[C@@H]2CC1 [7-oxo-ent-pimara-8(14),15-diene-19-oic acid]					significantly inhibited	
C=CC1(C)CC(=O)C2C(O)(C1=O)C(O)CC1C(C)(C)C(OC(=O)c3ccccc3)C(OC(C)=O)C(OC(=O)c3ccccc3)C12C (stereo not drawn) [Compound 7, orthosiphol N]	1.67–1.75 fold	1.6 ± 0.17	5.5 ± 0.1	uncompetitive inhibition		2-NBDG uptake, fold of induction (3T3-L1 adipocytes; 5 μM): 1.67 ± 0.08 fold
C=C[C@@]1(C)CC(=O)[C@H]2[C@](O)(C1=O)[C@H](O)C[C@H]1C(C)(C)[C@H](OC(C)=O)[C@H](OC(C)=O)[C@H](OC(=O)c3ccccc3)[C@@]12C [Compound 6, orthosiphol I]	1.72–1.83 fold	0.33 ± 0.07	1.3 ± 0.6	competitive inhibition		2-NBDG uptake, fold of induction (3T3-L1 adipocytes; 5 μM): 1.72 ± 0.11 fold
C=CC1(C)C=C2CCC3C(C)(CO)CCCC3(C)C2CC1 (stereo not drawn) [ent-pimara-8(14),15-diene-19-ol]					significantly inhibited	
C=C[C@]1(C)C=C2C(CC1)[C@]1(C)CCC[C@@](C)(C(=O)O)C1C[C@@H]2O (stereo partly drawn) [7β-hydroxy-ent-pimara-8(14),15-diene-19-oic acid]					significantly inhibited	
C=C[C@@]1(C)C[C@@H](OC(=O)c2ccccc2)[C@H]2[C@](O)(C1=O)[C@H](OC(C)=O)C[C@H]1C(C)(C)[C@H](OC(C)=O)[C@H](O)[C@H](OC(=O)c3ccccc3)[C@@]12C [Compound 3, orthosiphol B]	1.56–1.68 fold	9.84 ± 0.33	75.6 ± 1.7	non-competitive inhibition		2-NBDG uptake, fold of induction (3T3-L1 adipocytes; 5 μM): 1.56 ± 0.09 fold
C[C@H]1[C@H](C)CC[C@]2(C(=O)O)CC[C@]3(C)C(=CC[C@@H]4[C@@]5(C)CC[C@H](O)C(C)(C)[C@@H]5CC[C@]43C)[C@H]12 [Ursolic acid, reference compound]				mixed-competitive inhibitor		
C=CC1(C)CCC2C(O)(CCC3C(C)(CO)CCCC32C)C1 (stereo not drawn) [8α-hydroxy-ent-pimara-15-en-19-ol]					significantly inhibited	
C=CC1(C)CC(OC(=O)c2ccccc2)C2C(O)(C1=O)C(O)CC1C(C)(C)C(OC(C)=O)C(OC(C)=O)C(OC(=O)c3ccccc3)C12CO (stereo not drawn) [Compound 1, siphonol B]	1.45–1.51 fold	8.18 ± 0.41	52.4 ± 0.9	mixed-competitive inhibitor; also recorded: mixed-competitive inhibition		
C=C[C@@]1(C)C[C@@H](OC(=O)c2ccccc2)[C@H]2[C@](O)(C1=O)[C@H](O)C[C@H]1C(C)(C)[C@H](OC(C)=O)[C@H](OC(C)=O)[C@H](OC(=O)c3ccccc3)[C@@]12C [Compound 4, orthosiphol F]	1.28–1.35 fold	27.6 ± 2.99				
C=C[C@]1(C)C=C2CCC3[C@@](C)(CCC[C@@]3(C)C(=O)O)C2CC1 (stereo partly drawn) [ent-pimara-8(14),15-diene-19-oic acid]					significantly inhibited	
C=C1C[C@@]23CC[C@H]4[C@@](C)(CCC[C@@]4(C)C(=O)O)[C@@H]2CC[C@@H]1C3 [ent-kaur-16-en-19-oic-acid]					significantly inhibited	
